The source of these data is patent publication US9006464B2, “Substituted cyclopentanes having prostaglandin activity” (Allergan, Inc., priority 2007, dated 2015).

The target of data set [1] is T1, EP2 (Homo sapiens, UniProt P43116). Put plainly: EP2 cAMP assay. The class given is cell-based. The text has this:
(§1) U.S. patent application Ser. No. 11/553,143, filed on Oct. 26, 2006, incorporated by reference herein, describes the methods used to obtain the in vitro data in Table 1 below.

In data set [2] the target is T1, EP2. Put plainly: EP2 binding (Ki).
Excerpt: as §1

Data set [3] addresses T1, EP2. Put plainly: EP2 Ca2+ signal assay. The class given is cell-based.
Excerpt: as §1

Data set [4] addresses T2, EP4 (Homo sapiens, UniProt P35408). Put plainly: EP4 Ca2+ signal assay. The class given is cell-based.
Excerpt: as §1

The target in data set [5] is T2, EP4. Put plainly: EP4 binding (Ki).
Excerpt: as §1

The target in another data set is T3, DP (Homo sapiens, UniProt Q13258).
T3 sequence (Q13258 1-359): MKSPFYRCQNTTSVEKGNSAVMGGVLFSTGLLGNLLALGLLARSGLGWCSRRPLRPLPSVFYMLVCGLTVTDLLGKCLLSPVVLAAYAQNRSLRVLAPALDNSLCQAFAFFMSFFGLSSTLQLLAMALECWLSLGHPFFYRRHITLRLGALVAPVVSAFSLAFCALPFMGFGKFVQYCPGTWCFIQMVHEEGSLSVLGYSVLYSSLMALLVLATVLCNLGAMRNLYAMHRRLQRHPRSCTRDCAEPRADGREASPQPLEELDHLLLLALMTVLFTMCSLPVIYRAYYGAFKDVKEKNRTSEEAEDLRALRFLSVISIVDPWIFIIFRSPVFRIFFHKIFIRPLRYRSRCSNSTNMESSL
Put plainly: Other receptors Ca2+ assay, DP. The conditions noted are these: DP receptor. Format: cell-based.
Excerpt: as §1

The target in the next data set is T4, EP1 (Homo sapiens, UniProt P34995).
T4 sequence (P34995 1-402): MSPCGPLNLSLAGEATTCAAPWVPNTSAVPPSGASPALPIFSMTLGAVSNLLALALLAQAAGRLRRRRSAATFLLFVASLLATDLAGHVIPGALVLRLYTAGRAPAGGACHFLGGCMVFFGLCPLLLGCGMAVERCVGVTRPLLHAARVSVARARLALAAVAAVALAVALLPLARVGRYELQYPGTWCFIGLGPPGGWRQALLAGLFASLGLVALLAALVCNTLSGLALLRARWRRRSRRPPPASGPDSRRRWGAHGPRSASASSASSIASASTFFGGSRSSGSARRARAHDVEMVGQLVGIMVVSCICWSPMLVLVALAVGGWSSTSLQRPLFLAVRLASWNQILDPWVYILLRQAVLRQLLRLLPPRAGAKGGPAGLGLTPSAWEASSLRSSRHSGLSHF
Put plainly: Other receptors Ca2+ assay, EP1. Format: cell-based. The settings on record: EP1 receptor.
Excerpt: as §1

For a further data set, the target named is T5, EP3 (Homo sapiens, UniProt P43115).
T5 sequence (P43115 1-390): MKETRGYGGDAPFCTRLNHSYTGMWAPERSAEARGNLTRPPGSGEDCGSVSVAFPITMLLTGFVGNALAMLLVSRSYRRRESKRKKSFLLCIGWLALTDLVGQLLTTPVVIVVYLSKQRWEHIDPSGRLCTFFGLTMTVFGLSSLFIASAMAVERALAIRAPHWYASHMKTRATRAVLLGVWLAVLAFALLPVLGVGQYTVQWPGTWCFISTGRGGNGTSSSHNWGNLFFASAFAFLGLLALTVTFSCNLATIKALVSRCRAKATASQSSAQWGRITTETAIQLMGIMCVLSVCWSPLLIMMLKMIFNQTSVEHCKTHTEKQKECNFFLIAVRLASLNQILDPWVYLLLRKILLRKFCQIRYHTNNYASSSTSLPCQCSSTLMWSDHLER
Put plainly: Other receptors Ca2+ assay, EP3. Format: cell-based. The conditions noted are these: EP3 receptor.
Excerpt: as §1

In a further data set the target is FP (Homo sapiens, UniProt P43088). In words: Other receptors Ca2+ assay, FP. Format: cell-based. The settings on record: FP receptor.
FP, sequence (P43088 whole entry): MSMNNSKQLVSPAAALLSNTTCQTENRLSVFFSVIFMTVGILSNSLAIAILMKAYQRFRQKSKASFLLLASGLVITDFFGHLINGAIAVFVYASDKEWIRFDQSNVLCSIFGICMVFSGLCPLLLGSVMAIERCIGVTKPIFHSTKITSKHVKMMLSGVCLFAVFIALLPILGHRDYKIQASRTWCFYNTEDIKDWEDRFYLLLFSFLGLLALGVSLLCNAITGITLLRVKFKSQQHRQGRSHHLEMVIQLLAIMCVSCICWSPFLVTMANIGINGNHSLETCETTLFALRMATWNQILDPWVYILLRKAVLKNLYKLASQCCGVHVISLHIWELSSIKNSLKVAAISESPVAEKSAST
Excerpt: as §1

Another data set has as its target IP (Homo sapiens, UniProt P43119). Put plainly: Other receptors Ca2+ assay, IP. Format: cell-based. The conditions noted are these: IP receptor.
Excerpt: as §1

The target of another data set is T6, TP (Homo sapiens, UniProt P21731).
T6 sequence (P21731 1-343): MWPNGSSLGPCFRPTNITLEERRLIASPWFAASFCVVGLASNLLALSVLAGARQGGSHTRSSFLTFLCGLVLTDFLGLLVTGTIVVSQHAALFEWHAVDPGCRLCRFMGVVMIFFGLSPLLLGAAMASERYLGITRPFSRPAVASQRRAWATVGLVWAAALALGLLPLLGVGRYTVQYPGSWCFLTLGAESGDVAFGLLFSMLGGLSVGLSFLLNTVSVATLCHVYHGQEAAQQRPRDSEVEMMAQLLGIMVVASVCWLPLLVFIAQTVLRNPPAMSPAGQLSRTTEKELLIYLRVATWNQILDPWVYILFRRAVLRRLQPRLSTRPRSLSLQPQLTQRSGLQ
Put plainly: Other receptors Ca2+ assay, TP. The class given is cell-based. The conditions noted are these: TP receptor.
Excerpt: as §1

In data set [6] the test system is DOG. Put plainly: Dog intraocular pressure test. Format: in vivo. The text has this: (§2) U.S. Pat. No. 7,091,231, incorporated by reference herein, describes the methods used to obtain the in vivo test results presented in Table 2.
Data set [7] relates to DOG. In words: Dog ocular hyperemia. The class given is in vivo.
Excerpt: as §2

In the next data set the test system is MONKEY. In words: Monkey intraocular pressure test. Format: in vivo.
Excerpt: as §2

T2 sequence (P35408 whole entry): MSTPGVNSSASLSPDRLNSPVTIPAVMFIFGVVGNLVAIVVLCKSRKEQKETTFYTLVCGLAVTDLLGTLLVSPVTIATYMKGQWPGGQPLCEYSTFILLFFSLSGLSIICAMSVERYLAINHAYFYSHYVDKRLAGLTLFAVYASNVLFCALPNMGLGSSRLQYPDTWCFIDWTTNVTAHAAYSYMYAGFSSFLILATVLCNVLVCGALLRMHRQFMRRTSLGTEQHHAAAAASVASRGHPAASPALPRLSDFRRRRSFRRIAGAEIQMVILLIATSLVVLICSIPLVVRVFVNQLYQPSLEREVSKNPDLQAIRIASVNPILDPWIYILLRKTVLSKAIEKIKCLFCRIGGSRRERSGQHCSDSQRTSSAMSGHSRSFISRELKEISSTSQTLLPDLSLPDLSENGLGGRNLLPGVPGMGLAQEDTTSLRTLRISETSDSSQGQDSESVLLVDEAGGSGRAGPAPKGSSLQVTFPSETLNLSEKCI
T1 sequence (P43116 whole entry): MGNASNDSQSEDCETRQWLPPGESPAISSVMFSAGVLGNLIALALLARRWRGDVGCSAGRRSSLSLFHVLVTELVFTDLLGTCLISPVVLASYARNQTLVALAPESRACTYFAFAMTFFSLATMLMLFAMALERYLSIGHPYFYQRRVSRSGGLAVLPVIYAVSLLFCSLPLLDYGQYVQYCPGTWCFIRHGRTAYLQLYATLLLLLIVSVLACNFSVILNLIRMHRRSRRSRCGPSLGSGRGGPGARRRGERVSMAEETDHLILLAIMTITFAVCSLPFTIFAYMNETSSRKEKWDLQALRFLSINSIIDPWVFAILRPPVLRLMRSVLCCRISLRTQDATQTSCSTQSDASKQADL
IP, sequence (P43119 whole entry): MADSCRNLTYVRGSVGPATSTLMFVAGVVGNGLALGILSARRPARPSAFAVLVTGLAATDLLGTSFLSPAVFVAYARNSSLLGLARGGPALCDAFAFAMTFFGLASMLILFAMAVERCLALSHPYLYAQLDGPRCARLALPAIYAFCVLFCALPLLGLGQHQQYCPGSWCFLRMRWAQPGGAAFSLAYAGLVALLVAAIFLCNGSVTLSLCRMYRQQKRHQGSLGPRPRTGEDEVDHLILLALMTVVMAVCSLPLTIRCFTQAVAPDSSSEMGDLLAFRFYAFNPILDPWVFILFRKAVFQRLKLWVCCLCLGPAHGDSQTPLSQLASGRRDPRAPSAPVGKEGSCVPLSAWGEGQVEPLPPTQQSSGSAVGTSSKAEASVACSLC

Usually EC50 stands for the concentration that produces a half-maximal response. As usually defined, the Ki is a measure of affinity in units of concentration, obtained from inhibition or displacement. With `CCCCCCC[C@@H]1[C@@H](CCCc2ccc(C(=O)O)s2)[C@H](Cl)C[C@H]1O` [Entry 3, 5-[3-((1R,2R,3R,5R)-5-Chloro-2-heptyl-3-hydroxy-cyclopentyl)-propyl]-thiophene-2-carboxylic acid], the EC50 is 2 nM on EP2 [1]; 67 nM on EP2 [3]; 7.51 µM on EP4 [4]; 2250 nM on DP; 3390 nM at EP1; 6.66 µM at EP3. In addition, the EC50 was not below 10 µM on FP, more than 10 µM on IP and not below 10 µM at TP. In addition, the Ki at EP2 [2] came out at 3 nM; at EP4 [5], 330 nM.

In the case of `CCCCCCCC[C@@H]1[C@@H](CCCc2ccc(C(=O)OCCO)s2)[C@H](Cl)C[C@H]1O` [Entry 1-8, 5-[3-((1R,2R,3R,5R)-5-Chloro-3-hydroxy-2-octyl-cyclopentyl)-propyl]-thiophene-2-carboxylic acid 2-hydroxy-ethyl ester], the “DOG Max. ΔIOP” value with DOG [6] (Conc. 0.01 g/100 mL) is on record as 35%. Also, the “DOG Max. hyperemia” value in the data set on DOG [7] (Conc. 0.01 g/100 mL) is listed as 2.0. For the same molecule, in the data set on MONKEY (Conc. 0.01 g/100 mL), the “MONKEY Max. ΔIOP” value was found to be 53%.

As for `CCCCCCCC[C@@H]1[C@@H](CCCc2ccc(C(=O)O)s2)[C@H](Cl)C[C@H]1O` [Entry 4, 5-[3-((1R,2R,3R,5R)-5-Chloro-3-hydroxy-2-octyl-cyclopentyl)-propyl]-thiophene-2-carboxylic acid], the half-maximal effective concentration (EC50) on EP2 [1] turned out to be 0.4 nM; on EP2 [3] it was 11 nM; on EP4 [4] it was 11.4 µM; on DP, 6770 nM; on EP1, 18200 nM; on EP3 it was 9.53 µM. For the same molecule, the Ki turned out to be 0.5 nM at EP2 [2] and 395 nM on EP4 [5]. Also, the “DOG Max. ΔIOP” value in the data set with DOG [6] (Conc. 0.01 g/100 mL) is 40%. In addition, the “DOG Max. hyperemia” value with DOG [7] (Conc. 0.01 g/100 mL) was found to be 1.3. Moreover, the “MONKEY Max. ΔIOP” value in the data set on MONKEY (Conc. 0.01 g/100 mL) is 31%.

As to `CCCCCC(O)/C=C/[C@@H]1[C@@H](CCCc2ccc(C(=O)O)s2)[C@H](Cl)C[C@H]1O` (single isomer, unassigned) [Entry 15], the EC50 on EP2 [1] turned out to be 0.4 nM; at EP2 [3] it was 0.8 nM; on EP4 [4] it was 0.0002 µM; at DP, 10 nM; on EP1 it was 1.3 nM; on EP3, 0.006 µM. At TP, this molecule showed an EC50 of 0.178 µM. The Ki amounted to 7 nM at EP2 [2] and 4 nM at EP4 [5].

Take `CCCCCCCC[C@@H]1[C@@H](CCSc2nc(C(=O)O)cs2)[C@H](Cl)C[C@H]1O` [Entry 6-8, 2-(2-((1R,2R,3R,5R)-5-chloro-3-hydroxy-2-octylcyclopentyl)ethylthio)thiazole-4-carboxylic acid]: the “DOG Max. ΔIOP” value with DOG [6] (Conc. .005% (g/100 mL)) came out at 44%. For the same molecule, the “DOG Max. hyperemia” value in the data set on DOG [7] (Conc. .005% (g/100 mL)) is 2.4. Further, the “MONKEY Max. ΔIOP” value in the data set on MONKEY (Conc. .005% (g/100 mL)) is given as 56%.

Turning to `C=CCCCCCC[C@@H]1[C@@H](CCCc2ccc(C(=O)O)s2)[C@H](Cl)C[C@H]1O` [Entry 12, 5-[3-((1R,2R,3R,5R)-5-Chloro-3-hydroxy-2-oct-7-enyl-cyclopentyl)-propyl]-thiophene-2-carboxylic acid], the 50% effective concentration (EC50) on EP2 [1] was 0.2 nM; on EP2 [3], 7 nM; at EP4 [4], 6.47 µM; at DP, 3210 nM; at EP1, 883 nM; on EP3 it was 4.99 µM. Further, the values for the EC50 on FP and at TP were 7.57 µM and 10.3 µM, respectively. The inhibition constant (Ki) at EP2 [2] stood at 3 nM; at EP4 [5] it was 351 nM.

For `CCCCCCCC[C@@H]1[C@@H](CCCc2ccc(C(=O)OC(C)C)s2)[C@H](Cl)C[C@H]1O` [Entry 1-9], the “DOG Max. ΔIOP” value with DOG [6] (Conc. 0.01 g/100 mL) is 22%. The “DOG Max. hyperemia” value with DOG [7] (Conc. 0.01 g/100 mL) came to 0.9.
